Assay results from PubChem BioAssay (NCI).
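96-well plates; 48 h exposure; 5 concentrations. Endpoints by linear interpolation between flanking doses. Not reached: highest tested concentration assigned. The concentration for 50% growth inhibition is given as GI50. The concentration for full growth arrest is given as TGI.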

Assays:
Assay in all cases: DTP human tumour cell line panel, 48 h
SK-MEL-28 melanoma = test system: SK-MEL-28 melanoma
A549 NSCLC = test system: A549 NSCLC
M14 melanoma = test system: M14 melanoma
OVCAR-4 ovarian = test system: OVCAR-4 ovarian
COLO 205 colon = test system: COLO 205 colon
MDA-N = test system: MDA-N
HT29 colon = test system: HT29 colon
OVCAR-3 ovarian = test system: OVCAR-3 ovarian
UO-31 renal = test system: UO-31 renal
BT-549 breast = test system: BT-549 breast
RXF 393 renal = test system: RXF 393 renal
NCI-H460 lung = test system: NCI-H460 lung
K-562 leukemia = test system: K-562 leukemia
HS 578T breast = test system: HS 578T breast
MDA-MB-231 breast = test system: MDA-MB-231 breast
NCI-H522 lung = test system: NCI-H522 lung
HCT-15 colon = test system: HCT-15 colon
LOX IMVI melanoma = test system: LOX IMVI melanoma
KM12 colon = test system: KM12 colon
RPMI-8226 leukemia = test system: RPMI-8226 leukemia
CAKI-1 renal = test system: CAKI-1 renal
EKVX NSCLC = test system: EKVX NSCLC
SN12C renal = test system: SN12C renal
SNB-19 CNS = test system: SNB-19 CNS
SK-OV-3 ovarian = test system: SK-OV-3 ovarian
UACC-62 melanoma = test system: UACC-62 melanoma
U251 CNS = test system: U251 CNS
MDA-MB-435 = test system: MDA-MB-435
UACC-257 melanoma = test system: UACC-257 melanoma
MOLT-4 leukemia = test system: MOLT-4 leukemia
MCF7 breast = test system: MCF7 breast
HOP-62 NSCLC = test system: HOP-62 NSCLC
HOP-92 NSCLC = test system: HOP-92 NSCLC
HL-60(TB) leukemia = test system: HL-60(TB) leukemia
NCI/ADR-RES ovarian = test system: NCI/ADR-RES ovarian
DU-145 prostate = test system: DU-145 prostate
MALME-3M melanoma = test system: MALME-3M melanoma
ACHN renal = test system: ACHN renal
A498 renal = test system: A498 renal
SR leukemia = test system: SR leukemia
SK-MEL-5 melanoma = test system: SK-MEL-5 melanoma
HCT-116 colon = test system: HCT-116 colon
T-47D breast = test system: T-47D breast
CCRF-CEM leukemia = test system: CCRF-CEM leukemia
SNB-75 CNS = test system: SNB-75 CNS
NCI-H23 lung = test system: NCI-H23 lung
OVCAR-8 ovarian = test system: OVCAR-8 ovarian
SF-295 CNS = test system: SF-295 CNS
NCI-H226 lung = test system: NCI-H226 lung
PC-3 prostate = test system: PC-3 prostate
OVCAR-5 ovarian = test system: OVCAR-5 ovarian
SK-MEL-2 melanoma = test system: SK-MEL-2 melanoma
786-0 renal = test system: 786-0 renal
SW-620 colon = test system: SW-620 colon
TK-10 renal = test system: TK-10 renal
IGROV1 ovarian = test system: IGROV1 ovarian
SF-268 CNS = test system: SF-268 CNS
SF-539 CNS = test system: SF-539 CNS

Nc1nc(Cl)cc(OCC2(CO)CC(OCc3ccccc3)C2)n1 (stereo not drawn)
GI50 (SK-MEL-28 melanoma): 96.9 µM | GI50 (A549 NSCLC): 43 µM | GI50 (M14 melanoma): 95 µM | GI50 (OVCAR-4 ovarian): 47.9 µM | GI50 (COLO 205 colon): 72.5 µM | GI50 (MDA-N): 64.4 µM | GI50 (HT29 colon): 33.9 µM | GI50 (OVCAR-3 ovarian): 47.1 µM | GI50 (UO-31 renal): 40.1 µM | GI50 (BT-549 breast): 46 µM | GI50 (RXF 393 renal): 48.6 µM | GI50 (NCI-H460 lung): 66.3 µM | GI50 (K-562 leukemia): 36.5 µM | GI50 (HS 578T breast): 34 µM | GI50 (MDA-MB-231 breast): 26.2 µM | GI50 (NCI-H522 lung): 47.2 µM | GI50 (HCT-15 colon): 83.8 µM | GI50 (LOX IMVI melanoma): 45.6 µM | GI50 (KM12 colon): 55.5 µM | GI50 (RPMI-8226 leukemia): 26.7 µM | GI50 (CAKI-1 renal): 48.2 µM | GI50 (EKVX NSCLC): 44.6 µM | GI50 (SN12C renal): 76.5 µM | GI50 (SNB-19 CNS): 51.6 µM | GI50 (SK-OV-3 ovarian): 61.2 µM | GI50 (UACC-62 melanoma): 77.1 µM | GI50 (U251 CNS): 55 µM | GI50 (MDA-MB-435): 69.4 µM | GI50 (UACC-257 melanoma): 49.5 µM | GI50 (MOLT-4 leukemia): 22 µM | TGI (MOLT-4 leukemia): 95.5 µM | GI50 (MCF7 breast): 46.2 µM | GI50 (HOP-62 NSCLC): 95.7 µM | GI50 (HOP-92 NSCLC): 49.9 µM | GI50 (HL-60(TB) leukemia): 40 µM | GI50 (NCI/ADR-RES ovarian): 45.8 µM | GI50 (DU-145 prostate): 66.3 µM | GI50 (MALME-3M melanoma): 84.5 µM | GI50 (ACHN renal): 41.5 µM | GI50 (A498 renal): 58.3 µM | GI50 (SR leukemia): 40.6 µM | GI50 (SK-MEL-5 melanoma): 23.9 µM | GI50 (HCT-116 colon): 64 µM | GI50 (T-47D breast): 18.9 µM | TGI (T-47D breast): 92.3 µM | GI50 (CCRF-CEM leukemia): 41.6 µM | GI50 (SNB-75 CNS): 27.9 µM | GI50 (NCI-H23 lung): 36.5 µM | GI50 (OVCAR-8 ovarian): 66.6 µM | GI50 (SF-295 CNS): 50.1 µM | GI50 (NCI-H226 lung): 74 µM

O=C(O)CNc1ccc(C(=O)O)cc1
TGI (SK-MEL-28 melanoma): > 100 µM | TGI (A549 NSCLC): > 100 µM | TGI (M14 melanoma): > 100 µM | TGI (OVCAR-4 ovarian): > 100 µM | TGI (COLO 205 colon): > 100 µM | TGI (MDA-N): > 100 µM | TGI (HT29 colon): > 100 µM | TGI (OVCAR-3 ovarian): > 100 µM | TGI (UO-31 renal): > 100 µM | TGI (BT-549 breast): > 100 µM | TGI (RXF 393 renal): > 100 µM | TGI (NCI-H460 lung): > 100 µM | TGI (K-562 leukemia): > 100 µM | TGI (HS 578T breast): > 100 µM | TGI (MDA-MB-231 breast): > 100 µM | TGI (NCI-H522 lung): > 100 µM | TGI (HCT-15 colon): > 100 µM | TGI (PC-3 prostate): > 100 µM | TGI (LOX IMVI melanoma): > 100 µM | TGI (OVCAR-5 ovarian): > 100 µM | TGI (KM12 colon): > 100 µM | TGI (RPMI-8226 leukemia): > 100 µM | TGI (CAKI-1 renal): > 100 µM | TGI (EKVX NSCLC): > 100 µM | TGI (SN12C renal): > 100 µM | TGI (SNB-19 CNS): > 100 µM | TGI (SK-OV-3 ovarian): > 100 µM | TGI (UACC-62 melanoma): > 100 µM | TGI (SK-MEL-2 melanoma): > 100 µM | TGI (U251 CNS): > 100 µM | TGI (MDA-MB-435): > 100 µM | TGI (UACC-257 melanoma): > 100 µM | TGI (MOLT-4 leukemia): > 100 µM | TGI (MCF7 breast): > 100 µM | TGI (HOP-62 NSCLC): > 100 µM | TGI (HOP-92 NSCLC): > 100 µM | TGI (HL-60(TB) leukemia): > 100 µM | TGI (NCI/ADR-RES ovarian): > 100 µM | TGI (786-0 renal): > 100 µM | TGI (DU-145 prostate): > 100 µM | TGI (MALME-3M melanoma): > 100 µM | TGI (ACHN renal): > 100 µM | TGI (SW-620 colon): > 100 µM | TGI (TK-10 renal): > 100 µM | TGI (A498 renal): > 100 µM | TGI (SK-MEL-5 melanoma): > 100 µM | TGI (HCT-116 colon): > 100 µM | TGI (IGROV1 ovarian): > 100 µM | TGI (SF-268 CNS): > 100 µM | TGI (T-47D breast): > 100 µM | TGI (CCRF-CEM leukemia): > 100 µM | TGI (SNB-75 CNS): > 100 µM | TGI (NCI-H23 lung): > 100 µM | TGI (OVCAR-8 ovarian): > 100 µM | TGI (SF-539 CNS): > 100 µM | TGI (SF-295 CNS): > 100 µM | TGI (NCI-H226 lung): > 100 µM
